The text below walks through data of US12091425B2 (AMGEN INC., priority 2016, dated 2024).

This assay addresses T1, Mcl-1/Bim interaction, recombinant human Mcl-1 (171-327) (Homo sapiens, UniProt Q07820).
T1 construct: made in house
The experiment in a line: Cell free Mcl-1: Bim Affinity Assay (Mcl-1 HTRF). In kind it is binding. The method, boiled down:
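TR-FRET competition assay with biotinylated human Bim peptide (residues 51-76); reaction plates incubated overnight before reading. IC50 values came from duplicate data fitted to a four-parameter sigmoidal competition curve.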
A general note: Time-resolved FRET reads energy transfer from a long-lived donor to a nearby acceptor.

[1] abbreviates: cell free Mcl-1:Bim TR-FRET, recombinant human Mcl-1 (171-327).
[2] abbreviates: TR-FRET, 0.1 nM Mcl-1 (171-327), 0.05 nM biotin-Bim (51-76).

Each structure is given as a SMILES string.

As usually defined, the IC50 is the midpoint of a concentration-inhibition curve.

T1 sequence (Q07820 171-327): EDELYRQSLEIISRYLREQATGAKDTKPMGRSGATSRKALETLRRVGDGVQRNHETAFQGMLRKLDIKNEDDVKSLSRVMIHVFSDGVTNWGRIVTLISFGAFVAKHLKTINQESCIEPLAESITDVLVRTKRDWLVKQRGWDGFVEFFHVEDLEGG

Consider `O=C1NS(=O)(=O)CCCCCC(=O)[C@@H]2CC[C@H]2CN2C[C@@]3(CCCc4cc(Cl)ccc43)COc3ccc1cc32` [Example 832, (1S,3′R,6′R)-6-chloro-3,4-dihydro-2H,7′H,15′H-spiro[naphthalene-1,22′-[20]oxa[13]thia[1,14]diazatetracyclo[14.7.2.0^3,6.0^19,24]pentacosa [16,18,24]triene]-7′,15′-dione 13′,13′-dioxide], for which the 50% inhibitory concentration (IC50) under setting [1] was determined as 8.26 nM.

As for `O=C1NS(=O)(=O)CCCCCC[C@H](O)[C@@H]2CC[C@H]2CN2C[C@@]3(CCCc4cc(Cl)ccc43)COc3ccc1cc32` [Example 835, (1S,3′R,6′R,7′S)-6-chloro-7′-hydroxy-3,4-dihydro-2H,16′H-spiro[naphthalene-1,23′[21]oxa[14]thia[1,15]diazatetracyclo[15.7.2.0^3,6.0^20,25]hexacosa[17,19,25]trien]-16′-one 14′,14′-dioxide], the concentration for half-maximal inhibition (IC50) under setting [1] stood at 3.44 nM.

Turning to `O=C1NS(=O)(=O)CCCCC[C@@H](O)[C@@H]2CC[C@H]2CN2C[C@@]3(CCCc4cc(Cl)ccc43)COc3ccc1cc32` [Example 843, (1S,3′R,6′R,7′R)-6-chloro-7′-hydroxy-3,4-dihydro-2H,15′H-spiro[naphthalene-1,22′-[20]oxa[13]thia[1,14]diazatetracyclo[14.7.2.0^3,6.0^19,24]pentacosa [16,18,24]trien]-15′-one 13′,13′-dioxide], the IC50 under setting [1] came to 6.8 nM.

Regarding `O=C1NS(=O)(=O)CCCC/C=C/[C@@H]2CC[C@H]2CN2C[C@@]3(CCCc4cc(Cl)ccc43)COc3ccc1cc32` [Example 858, (1S,3′R,6′S, 7′E)-6-chloro-3,4-dihydro-2H,15′H-spiro[naphthalene-1,22′-[20]oxa[13]thia[1,14]diazatetracyclo[14.7.2.0^3,6.0^19,24]pentacosa [7,16,18,24]tetraen]-15′-one 13′,13′-dioxide], the IC50 under setting [1] is 27.8 nM.

Take `C=C1/C=C/CC[C@@H](CC)S(=O)(=O)NC(=O)c2ccc3c(c2)N(C[C@@H]2CC[C@@H]12)C[C@@]1(CCCc2cc(Cl)ccc21)CO3` [Example 872, (1S,3′R,6′R,8′E,12′R)-6-chloro-12′-ethyl-7′-methylidene-3,4-dihydro-2H,15′H-spiro[naphthalene-1,22′-[20]oxa[13]thia[1,14]diazatetracyclo[14.7.2.0^3,6.0^19,24]pentacosa [8,16,18,24]tetraen]-15′-one 13′,13′-dioxide]: the IC50 under setting [1] turned out to be 6.36 nM.

Take `C=C1CCCCCS(=O)(=O)NC(=O)c2ccc3c(c2)N(C[C@@H]2CC[C@@H]12)C[C@@]1(CCCc2cc(Cl)ccc21)CO3` [Example 904, (1S,3′R,6′R)-6-chloro-7′-methylidene-3,4-dihydro-2H,15′H-spiro[naphthalene-1,22′-[20]oxa[13]thia[1,14]diazatetracyclo[14.7.2.0^3,6.0^19,24]pentacosa [16,18,24]trien]-15′-one 13′,13′-dioxide]: the IC50 under setting [1] was 16.2 nM.

In the case of `O=C1NS(=O)(=O)CC/C=C/CC(=O)[C@@H]2CC[C@H]2CN2C[C@@]3(CCCc4cc(Cl)ccc43)COc3ccc1cc32` [Example 905, (1S,3′R,6′R,9′E)-6-chloro-3,4-dihydro-2H,7′H,15′H-spiro[naphthalene-1,22′-[20]oxa[13]thia[1,14]diazatetracyclo[14.7.2.0^3,6.0^19,24]pentacosa [9,16,18,24]tetraene]-7′,15′-dione 13′,13′-dioxide], under setting [1], the IC50 was 14.1 nM.

Take `CC[C@@H]1CC/C=C/C(=O)[C@@H]2CC[C@H]2CN2C[C@@]3(CCCc4cc(Cl)ccc43)COc3ccc(cc32)C(=O)NS1(=O)=O` [Example 915, (1S,3′R,6′R,8′E,12′R)-6-chloro-12′-ethyl-3,4-dihydro-2H,7′H,15′H-spiro[naphthalene-1,22′-[20]oxa[13]thia[1,14]diazatetracyclo[14.7.2.0^3,6.0^19,24]pentacosa [8,16,18,24]tetraene]-7′,15′-dione 13′,13′-dioxide]: the concentration for half-maximal inhibition (IC50) under setting [1] was found to be 16.2 nM.

For `O=C1CC[C@@H]2CC[C@H]2CN2C[C@@]3(CCCc4cc(Cl)ccc43)COc3ccc(cc32)C(=O)NS(=O)(=O)CCN1` [Example 945, (1S,3′R,6′S)-6-chloro-3,4-dihydro-2H,9′H,15′H-spiro[naphthalene-1,22′-[20]oxa[13]thia[1,10,14]triazatetracyclo[14.7.2.0^3,6.0^19,24]pentacosa[16,18,24]triene]-9′,15′-dione 13′,13′-dioxide], under setting [1], the IC50 is 12 nM.

Turning to `CC[C@@H]1CC/C=C\[C@H](OCC(=O)NC)[C@@H]2CC[C@H]2CN2C[C@@]3(CCCc4cc(Cl)ccc43)COc3ccc(cc32)C(=O)NS1(=O)=O` [Example 964, 2-(((1S,3′R,6′R,7′S,8′Z,12′R)-6-chloro-12′-ethyl-13′,13′-dioxido-15′-oxo-3,4-dihydro-2H-spiro[naphthalene-1,22′-[20]oxa[13]thia[1,14]diazatetracyclo[14.7.2.0^3,6.0^19,24]pentacosa [8,16,18,24]tetraen]-7′-yl)oxy)-N-methylacetamide], the IC50 under setting [2] turned out to be 1.01 nM.

For the molecule `CC[C@@H]1CC/C=C/[C@H](OCCC2OCCO2)[C@@H]2CC[C@H]2CN2C[C@@]3(CCCc4cc(Cl)ccc43)COc3ccc(cc32)C(=O)NS1(=O)=O` [Example 968, (1S,3′R,6′R,7′S,8′E,12′R)-6-chloro-7′-(2-(1,3-dioxolan-2-yl)ethoxy)-12′-ethyl-3,4-dihydro-2H,15′H-spiro[naphthalene-1,22′-[20]oxa[13]thia[1,14]diazatetracyclo[14.7.2.0^3,6.0^19,24]pentacosa [8,16,18,24]tetraen]-15′-one 13′,13′-dioxide], the IC50 under setting [2] is 1.9 nM.

As to `CC[C@@H]1CC/C=C/[C@H](OCCO)[C@@H]2CC[C@H]2CN2C[C@@]3(CCCc4cc(Cl)ccc43)COc3ccc(cc32)C(=O)NS1(=O)=O` [Example 970, (1S,3′R,6′R,7′S,8′E,12′R)-6-chloro-12′-ethyl-7′-(2-hydroxyethoxy)-3,4-dihydro-2H,15′H-spiro[naphthalene-1,22′-[20]oxa[13]thia[1,14]diazatetracyclo[14.7.2.0^3,6.0^19,24]pentacosa [8,16,18,24]tetraen]-15′-one 13′,13′-dioxide], the IC50 under setting [2] was 0.859 nM.

For the molecule `CC[C@@H]1CC/C=C/[C@H](OCC(=O)OC(C)(C)C)[C@@H]2CC[C@H]2CN2C[C@@]3(CCCc4cc(Cl)ccc43)COc3ccc(cc32)C(=O)NS1(=O)=O` [Example 971, tert-butyl (((1S,3′R,6′R,7′S,8′E,12′R)-6-chloro-12′-ethyl-13′,13′-dioxido-15′-oxo-3,4-dihydro-2H-spiro[naphthalene-1,22′-[20]oxa[13]thia[1,14]diazatetracyclo[14.7.2.0^3,6.0^19,24]pentacosa [8,16,18,24]tetraen]-7′-yl)oxy)acetate], the IC50 under setting [2] came to 8.44 nM.

As for `CC[C@@H]1CC/C=C/[C@H](OCC(C)(C)O)[C@@H]2CC[C@H]2CN2C[C@@]3(CCCc4cc(Cl)ccc43)COc3ccc(cc32)C(=O)NS1(=O)=O` [Example 972, (1S,3′R,6′R,7′S,8′E,12′R)-6-chloro-12′-ethyl-7′-(2-hydroxy-2-methylpropoxy)-3,4-dihydro-2H,15′H-spiro[naphthalene-1,22′-[20]oxa[13]thia[1,14]diazatetracyclo[14.7.2.0^3,6.0^19,24]pentacosa [8,16,18,24]tetraen]-15′-one 13′,13′-dioxide], under setting [2], the IC50 was found to be 1.59 nM.

Regarding `CC[C@@H]1CC/C=C/[C@H](OCC(=O)N(C)C)[C@@H]2CC[C@H]2CN2C[C@@]3(CCCc4cc(Cl)ccc43)COc3ccc(cc32)C(=O)NS1(=O)=O` [Example 973], the half-inhibitory concentration (IC50) under setting [2] came out at 0.378 nM.

Consider `CC[C@@H]1CC/C=C/[C@H](OCC(=O)NC)[C@@H]2CC[C@H]2CN2C[C@@]3(CCCc4cc(Cl)ccc43)COc3ccc(cc32)C(=O)NS1(=O)=O` [Example 974, 2-(((1S,3′R,6′R,7′S,8′E,12′R)-6-chloro-12′-ethyl-13′,13′-dioxido-15′-oxo-3,4-dihydro-2H-spiro[naphthalene-1,22′-[20]oxa[13]thia[1,14]diazatetracyclo[14.7.2.0^3,6.0^19,24]pentacosa [8,16,18,24]tetraen]-7′-yl)oxy)-N-methylacetamide], for which the IC50 under setting [2] came to 0.716 nM.

In the case of `CCO[C@H]1/C=C/CC[C@@H](CC)S(=O)(=O)NC(=O)c2ccc3c(c2)N(C[C@@H]2CC[C@H]21)C[C@@]1(CCCc2cc(Cl)ccc21)CO3` [Example 975, (1S,3′R,6′R,7′S,8′E,12′R)-6-chloro-7′-ethoxy-12′-ethyl-3,4-dihydro-2H,15′H-spiro[naphthalene-1,22′-[20]oxa[13]thia[1,14]diazatetracyclo[14.7.2.0^3,6.0^19,24]pentacosa [8,16,18,24]tetraen]-15′-one 13′,13′-dioxide], the IC50 under setting [2] was found to be 2.15 nM.

For the molecule `CC[C@@H]1CC/C=C/[C@H](OCc2ccccn2)[C@@H]2CC[C@H]2CN2C[C@@]3(CCCc4cc(Cl)ccc43)COc3ccc(cc32)C(=O)NS1(=O)=O` [Example 976, (1S,3′R,6′R,7′S,8′E,12′R)-6-chloro-12′-ethyl-7′-(2-pyridinylmethoxy)-3,4-dihydro-2H,15′H-spiro[naphthalene-1,22′-[20]oxa[13]thia[1,14]diazatetracyclo[14.7.2.0^3,6.0^19,24]pentacosa [8,16,18,24]tetraen]-15′-one 13′,13′-dioxide], the IC50 under setting [2] came to 10.4 nM.

With `CC[C@@H]1CC/C=C/[C@H](OCCOC)[C@@H]2CC[C@H]2CN2C[C@@]3(CCCc4cc(Cl)ccc43)COc3ccc(cc32)C(=O)NS1(=O)=O` [Example 980, (1S,3′R,6′R,7′S,8′E,12′R)-6-chloro-12′-ethyl-7′-(2-methoxyethoxy)-3,4-dihydro-2H,15′H-spiro[naphthalene-1,22′-[20]oxa[13]thia[1,14]diazatetracyclo[14.7.2.0^3,6.0^19,24]pentacosa [8,16,18,24]tetraen]-15′-one 13′,13′-dioxide], the IC50 under setting [2] was 0.755 nM.
